Legend:
[1] = test system: transplanted tumor of mouse H22 liver cancer; assay: Transplanted tumor of mouse H22 liver cancer
Method: The H22 cell strains cryopreserved in liquid nitrogen were resuscitated in Kunming mice. After 3 generations, the ascites of Kunming mice were taken and placed in a 50 ml centrifuge tube in which 10 ml of 0.9% normal saline was added, and then centrifuging was performed at 1000 rpm for 5 min at room temperature, and the obtained supernatant was removed. Then 10 ml of 0.9% normal saline was added to the tube to blow and mix well, and then the mixture was diluted to 5×10^6 live cells/ml with normal saline after counting. The tube was stored in ice water, and 75% ethanol was used to disinfect the skin under the right armpits of the mice. Each Kunming mouse was soon inoculated subcutaneously with 0.2 ml of the cells at the armpit of the right forelimb.
In the H22 liver cancer model, the mice inoculated with the tumor were randomly divided into groups with 10 mice in each group on the next day of inoculation. The groups included: a model control group, a positive drug cyclophosphamide control group (CTX, 26 mg/kg), isovaleryl spiramycin I groups with doses of 13, 26 and 52 mg/kg; isovaleryl spiramycin II groups with doses of 13, 26 and 52 mg/kg; isovaleryl spiramycin III groups with doses of 13, 26 and 52 mg/kg. Each group was continuously administered intragastrically for 7 days with a dose of 20 ml/kg.
The tumor-bearing mice were weighed and sacrificed the next day after the last administration. The subcutaneous tumors were dissected and weighed. The average tumor weight of each group is calculated, and the tumor inhibition rate is calculated.
Tumor inhibition rate=(1−T/C)×100%
T: average tumor weight of the drug-administered group; C: average tumor weight of the blank control group.

[2] = test system: transplanted tumor of HT-29 cells; assay: HT-29 transplanted tumor in nude mice
Method: (§1) Then cell concentration was adjusted to 1×10^7/ml with matrigel, then each nude mouse was inoculated subcutaneously with 0.2 ml of cells at its right armpit and recorded as the first day of inoculation. When the tumor grows to be greater than or equal to 100 mm^3, the mice were randomly divided into 11 groups with 6 mice in each group: isovaleryl spiramycin I groups with doses of 25, 50 and 100 mg/kg, isovaleryl spiramycin II groups with doses of 25, 50 and 100 mg/kg, and isovaleryl spiramycin III groups with doses of 25, 50 and 100 mg/kg. Each group was continuously administered intragastrically for 30 days with a dose of 20 ml/kg. The mice were sacrificed the next day after drug withdrawal and the indicators were tested. The long diameter and short diameter of the tumor, and the body weight of each mouse were recorded every 3 days from drug administration to nude mouse sacrifice.
(§2) The body weight of the nude mice and the long diameter (a) and short diameter (b) of the transplanted tumor were measured every 3 days, and the tumor volume (v), relative tumor volume (RTV) and relative tumor proliferation rate (T/C) are calculated respectively according to the following formulas, wherein V=a×b^2/2; RTV=V/V0 (V0 is the tumor volume before administration, V is the tumor volume before sacrifice), and T/C (%)=treatment group RTV/model control group RTV×100%.
(§3) Each mouse was weighed and sacrificed. After the tumor was completely stripped off from the body of the mouse, the non-tumor tissues such as blood stains and fat were removed to weigh the tumor and calculate the tumor growth inhibition rate. The average tumor weight of each group of mice is used as an indicator of efficacy. Tumor growth inhibition rate (%)=(1−the average tumor weight of the treatment group/the average tumor weight of the model group)×100%.

[3] = test system: transplanted tumor of human renal clear cell adenocarcinoma cell 786-O; assay: 786-O transplanted tumor in nude mice; conditions: 786-O nude mice, 30 mg/kg
Method: as §1, with “786-O cells in a logarithmic growth phase were taken and subjected to a trypan blue exclusion experiment showing that the cell viability was more than 95%, then the cells were subjected to trypsinization, centrifugation, and supernatant removal. Then” for “Then”, “group: a model group, a cyclophosphamide group,” for “group:”
as §2, §3

**Q.** How did the “weight compared with the normal control group” value ([1]; H22, CTX 26 mg/kg i.g. 7 days) turn out when `O=P1(N(CCCl)CCCl)NCCCO1` (centres unmarked) [Cyclophosphamide, cyclophosphamide, reference compound] was run?
**A.** The value was “slight decrease”.

**Q.** And the tumor inhibition rate ([1]; Kunming mouse H22 liver cancer, CTX 26 mg/kg i.g. 7 days)?
**A.** Its tumor inhibition rate is 73.03%.

**Q.** And the “Inhibition Rate (%)” value ([1]; dose 26 mg/kg)?
**A.** Its value is 73.03%.

**Q.** And the “Tumor” value ([1]; dose 26 mg/kg)?
**A.** The value was 0.41 ± 0.27 g.

**Q.** And the “Body Weight (g) (d1)” value ([1]; dose 26 mg/kg, d 1)?
**A.** The value was 23.72 ± 1.79 g.

**Q.** What about the “Body Weight (g) (d 7)” value ([1]; dose 26 mg/kg, d 7) of the same compound?
**A.** Its value is 23.68 ± 1.32 g.

**Q.** And the “Relative Tumor Proliferation Rate (T/C)” value ([1]; dose 30 mg/kg)?
**A.** Its value is 28.78.

**Q.** What about the “Relative Tumor Volume (RTV)” value ([1]; dose 30 mg/kg) of the same compound?
**A.** The value was 2.86 ± 1.44.

**Q.** What about the “Tumor Volume (mm3) (d 1)” value ([1]; dose 30 mg/kg, d 1) of the same compound?
**A.** The value was 119.60 ± 31.11 mm3.

**Q.** What about the “Tumor Volume (mm3) (d30)” value ([1]; dose 30 mg/kg, d 30) of the same compound?
**A.** The value was 307.34 ± 79.91 mm3.

**Q.** What about the “Inhibition Rate (%)” value ([2]; HT-29 nude mice, 30 mg/kg) of the same compound?
**A.** The value was 78.87%.

**Q.** And the “Tumor Weight” value ([2]; HT-29 nude mice, 30 mg/kg)?
**A.** Its value is 0.50 ± 0.25 g.

**Q.** What about the “Body Weight (g) (d1)” value ([2]; HT-29 nude mice, 30 mg/kg, d1) of the same compound?
**A.** Its value is 21.42 ± 1.35 g.

**Q.** And the “Body Weight (g) (d30)” value ([2]; HT-29 nude mice, 30 mg/kg, d30)?
**A.** The value was 18.69 ± 1.21 g.

**Q.** What about the “Relative Tumor Proliferation Rate (T/C)” value ([2]; dose 30 mg/kg) of the same compound?
**A.** Its value is 19.84%.

**Q.** And the “Relative Tumor Volume (RTV)” value ([2]; dose 30 mg/kg)?
**A.** The value was 2.86 ± 1.44.

**Q.** What about the “Tumor Volume (mm3) (d 1)” value ([2]; dose 30 mg/kg, d 1) of the same compound?
**A.** Its value is 176.59 ± 36.81 mm3.

**Q.** What about the “Tumor Volume (mm3) (d30)” value ([2]; dose 30 mg/kg, d 30) of the same compound?
**A.** Its value is 477.12 ± 166.46 mm3.

**Q.** What about the “Inhibition Rate (%)” value [3] of the same compound?
**A.** Its value is 70.51%.

**Q.** What about the “Relative Tumor Proliferation Rate (T/C)” value [3] of the same compound?
**A.** The value was 37.41%.

**Q.** And the “Relative Tumor Volume (RTV)” value [3]?
**A.** Its value is 6.76 ± 0.79.

**Q.** What about the “Tumor Weight” value [3] of the same compound?
**A.** The value was 0.63 ± 0.04 g.

**Q.** What about the “Body Weight (g) (d1)” value ([3]; d1) of the same compound?
**A.** Its value is 21.58 ± 0.81 g.

**Q.** What about the “Tumor Volume (mm3) (d 1)” value ([3]; d1) of the same compound?
**A.** Its value is 108.64 ± 14.40 mm3.

**Q.** And the “Body Weight (g) (d30)” value ([3]; d30)?
**A.** Its value is 19.42 ± 0.67 g.

**Q.** And the “Tumor Volume (mm3) (d30)” value ([3]; d30)?
**A.** The value was 734.23 ± 24.66 mm3.

Source: patent US20200163984A1, “USE OF ISOVALERYL SPIRAMYCIN I, II AND/OR III IN MANUFACTURING MEDICAMENT FOR TREATING AND/OR PREVENTING TUMOR, AND MEDICAMENT” (SHENYANG FUYANG PHARMACEUTICAL TECHNOLOGY CO., LTD., priority 2017, published 2020)
